Laboratory results as given in patent US20240210394A1, “MICROORGANISM CAPTURE FROM ANTIMICROBIAL-CONTAINING SOLUTION” (MOMENTUM BIOSCIENCE LIMITED, priority 2019, published 2024).

How the values were obtained:
[1] = tested on: Pseudomonas aeruginosa; details: P. aeruginosa; cited from earlier work
[2] = tested on: E. coli; test: Blood culture time to positivity (flip time), bead rescue vs no-rescue control; format: cell-based; details: Cefepime 164 mg/L blood; for Flip time: Bead rescue; for Flip time in Days: Control (FA plus bottle)
Protocol: (§1) Day 1: Prepare overnight culture of test organism in blood/broth medium (50:50 blood:broth) and incubate at 37° C. in a shaking incubator.
Day 2: Prepare ten-fold serial dilution of overnight culture in blood/broth as required and incubate at 37° C. for 2 h for outgrowth.
Add 5 mL of spiked blood+beads (set 1) and 5 mL of spiked blood/Abx+beads (set 3) to blood culture bottles (BioMerieux SA culture bottle) using a vial adapter (West Pharmaceutical Services, Inc. PA, US).
Remove the adaptor and incubate the blood culture bottles in the automated blood culture cabinet (BacT/ALERT BioMerieux) for up to 5 days.
Record the “Flip” time of each bottle or bottle result at the end of 5 days incubation. The “Flip” time is when a bottle turns positive as determined by the automated blood culture cabinet, which records time to positivity.
Day 1: Prepare overnight culture of test organism in blood/broth medium (50:50 blood:broth) and incubate at 37° C. (or 30° C. for C. neoformans) in a shaking incubator.
(or 30° C. for C. neoformans) for 2 h for outgrowth. • Antibiotic added to whole blood (defibrinated horse blood) at required level • Whole blood as no-antibiotic control • Test dilution(s) of organism added to blood+antibiotic or blood only at 10 μL per mL of blood (sufficient prepared for experiment requirements) • 100 μL plate count sample taken (TO sample) • 2-hour incubation (static) at 37° C. (or 30° C. for C. neoformans) • 100 μL plate count sample taken (T2 sample) • 5 mL of spiked blood+abx or blood only added to blood culture bottle (using vial adapter) and incubation started (adapter removed) • 5 mL of spiked blood+abx or blood only (from same source) treated with Momentum Capture Beads as below: • 1. Capture Beads diluted in the relevant Capture Reagent—50 μL beads:700 μL capture reagent per clean-up • 2. 750 μL of diluted beads added to 50 mL conical centrifuge tube • 3. 5 mL of transfer medium added to tube • 4. 5 mL of spiked blood+abx or blood only added to tube • 5. […] Magnetise on V&P magnet for 10 min then remove supernatant • 7. Resuspend beads in 1 mL Detergent-free Wash Buffer (DWB) off magnet and transfer to 2 mL Eppendorf flip-top tube on DynaMag-2 magnet • 8. Magnetise for 3 min then remove supernatant • 9. Resuspend beads in 1 mL Detergent-free Wash Buffer (DWB) off magnet then replace on DynaMag-2 magnet • 10. Magnetise for 3 min then remove supernatant • 11. Resuspend beads in 1 mL DWB, add to new blood culture bottle (using vial adapter) and start incubation (adapter removed)
Momentum Capture Beads diluted in the relevant Capture Reagent—50 μL beads:700 μL capture reagent per clean-up • 2. 750 μL of diluted beads added to 50 mL conical centrifuge tube • 3. 5 mL of transfer medium added to tube • 4. 5 mL of spiked blood+abx or blood only added to tube • 5. […] Magnetise on V&P magnet for 10 min then remove supernatant • 7. Resuspend beads in 1 mL Detergent-free Wash Buffer (DWB) off magnet and transfer to 2 mL Eppendorf flip-top tube on DynaMag-2 magnet • 8. Magnetise for 3 min then remove supernatant • 9. Resuspend beads in 1 mL Detergent-free Wash Buffer (DWB) off magnet then replace on DynaMag-2 magnet • 10. Magnetise for 3 min then remove supernatant • 11. Resuspend beads in 1 mL DWB, add to an unused blood culture bottle (BioMerieux FA+culture bottle) using vial adapter and start incubation (adapter removed)

[3] = tested on: Klebsiella pneumoniae; details: K. pneumoniae; cited from earlier work
[4] = tested on: E. coli; details: cited from earlier work
[5] = tested on: S. aureus; test: Blood culture time to positivity (flip time), bead rescue vs no-rescue control; format: cell-based; details: for Flip time: Cefepime 164 mg/L blood; for Difference (Days) compared to BE / Flip time in Days: Vancomycin 500 mg/L blood, antibiotic-labelled line = BC control without beads; for Flip time in Days: bead rescue with named bead type; for Bead Rescue Flip time / Control Flip time in Days: antibiotic 500 mg/L blood
Protocol: An overnight culture of test organism was prepared in blood/broth medium (50:50 blood:broth medium from a BioMerieux SA culture bottle).
Ten-fold serial dilutions of overnight culture was prepared in blood/broth as required.
Antibiotic (abx) was added to whole human blood (in citrate-phosphate-dextrose, CPD, an anticoagulant) at required level.
Whole blood was used as the no-antibiotic control.
Test dilution(s) of organism was added to blood+antibiotic or blood only at 10 μL per mL of blood (sufficient prepared for experiment requirements). 100 μL plate count sample was taken (TO sample).
The inoculated samples were incubated at 37° C. (static) for 2-hour. 100 μL plate count sample was taken (T2 sample).
For the control, 5 mL of spiked blood+abx or blood only was added to blood culture bottles (BioMerieux SA culture bottle) using a vial adapter (West Pharmaceutical Services, Inc. PA, US) and incubated in the automated blood culture cabinet (adapter removed).
For the ‘rescue’ test, 5 mL of spiked blood+abx or blood only was treated with Momentum Capture Beads (Streptavidin-coated, −300 nm beads, Bio estapor, Merk Cat #BE-M 08/0.3) as below: • Momentum Capture Beads diluted in Detergent-free Microbial Binding Buffer (DMBB—Tris+NaCl)—50 μL beads:700 μL DMBB per clean-up • 750 μL of diluted beads added to 50 mL conical centrifuge tube • 5 mL of broth medium added to tube • 5 mL of spiked blood+abx or blood only added to tube • Incubate on ITL TherMix (Integrated Technologies Ltd. Kent, UK), 32.5° C./30 min/1000 rpm—ramped speed protocol • Magnetise on V&P magnet (V&P scientific Inc, CA, US) for 5 min then remove supernatant • Resuspend beads in 1 mL Detergent-free Wash Buffer (DWB—Tris+NaCl) off magnet and transfer to 2 mL Eppendorf flip-top tube on DynaMag-2 magnet (Thermo Fisher Scientific, Life Technologies Ltd. Paisley, UK) • Magnetise for 5 min then remove supernatant • Resuspend beads in 1 mL DWB off magnet then replace on DynaMag-2 magnet • Magnetise for 5 min then remove supernatant • Resuspend beads in 1 mL DWB, add to a fresh, unused blood culture bottle (BioMerieux SA culture bottle) containing standard blood culture growth medium using a vial adapter, and start incubation (adapter removed). • Blood culture bottles are incubated in the automated blood culture cabinet (BacT/ALERT BioMerieux) which records time to positivity. The “Flip” time is when a bottle turns positive as determined by the automated blood culture cabinet. • “Flip” time of each bottle is recorded. • Plate counts (Total Viable Count TVC) are recorded.
as §1
Day 2: Prepare ten-fold serial dilution of overnight culture in blood/broth as required • Antibiotic added to whole blood (defibrinated horse blood) at required level • Whole blood as no-antibiotic control • Test dilution(s) of organism added to blood+antibiotic or blood only at 10 μL per mL of blood (sufficient prepared for experiment requirements) • 100 μL plate count sample taken (TO sample) • 2-hour incubation at 37° C. (static), to mimic organism exposure to antimicrobials in the patient • 100 μL plate count sample taken (T2 sample) • 5 mL of spiked blood+abx or blood only added to blood culture bottle (using vial adapter) and incubation started (adapter removed) • 5 mL of spiked blood+abx or blood only (from same source) treated with Momentum Capture Beads as below: • 1. Momentum Capture Beads diluted in Detergent-free Microbial Binding Buffer (DMBB)—50 μL beads:700 μL DMBB per clean-up • 2. 750 μL of diluted beads added to 50 mL conical centrifuge tube • 3. 5 mL of transfer medium added to tube • 4. 5 mL of spiked blood+abx or blood only added to tube • 5.

[6] = tested on: S. aureus; details: cited from earlier work
[7] = tested on: S. aureus; test: Antibiotic breakpoint experiment (plate counts at 0, 2.5 and 5 hours); format: cell-based; details: two different strains of S. aureus, every time point
Protocol: To determine a starting point in terms of antibiotic concentration and microbial load for subsequent experiments. Antibiotic concentration ranges were tested to find appropriate breakpoints for use in experiments. A range of antibiotic concentrations were tested against a given microbial load to determine the concentration at which growth was inhibited but the microorganisms were not killed. This was determined by plate counts at intervals of 0, 2.5 and 5 hours.
• 1. Day 1: Prepare an overnight culture of the test organism in 3 mL of blood/broth solution (1.5 mL defibrinated Horse blood: 1.5 mL transfer Medium). • 2. Day 2: Dissolve antibiotic in required diluent to prepare a suitable stock solution and prepare a dilution series in Nuclease-free Water to cover a final concentration range of 100 to 0.001 and Omg/L. • 3. Dilute the overnight culture of the microorganism to the required point in pre-warmed blood/broth solution. This may require determining for each organism/antibiotic combination, but as a starting dilution 10-4 will be used (giving a final concentration in the sample of 10-5). • 4. Aliquot 980 μL of pre-warmed defibrinated horse blood into the required number of 2 mL flip-top tube. • 5. […]
The concentrations determined by this protocol were used in the following examples unless stated otherwise. […]

In the case of `CO/N=C(\C(=O)N[C@@H]1C(=O)N2C(C(=O)[O-])=C(C[N+]3(C)CCCC3)CS[C@H]12)c1csc(N)n1` [Cefepime], the “MIC” value [1] is given as no more than 1 µg/mL, the “Flip time” value ([2]; 125000 cfu/5 mL blood) is given as 0.47 days and the “Flip time” value ([2]; 1250000 cfu/5 mL blood) is given as 0.38 days. The “Flip time in Days” value ([2]; 125000 cfu/5 mL blood) was “Neg”, the “Flip time in Days” value ([2]; 1250000 cfu/5 mL blood) was “Neg” and the “MIC” value [3] was no more than 1 µg/mL. For the same molecule, the “MIC” value [4] was no more than 1 µg/mL, the “Flip time” value ([5]; Bead rescue, 125000 cfu/5 mL blood) was 0.46 days and the “Flip time” value ([5]; Bead rescue, 750000 cfu/5 mL blood) was 0.39 days. The “Flip time” value ([5]; Control (FA plus bottle), 125000 cfu/5 mL blood) was 2.69 days, the “Flip time” value ([5]; Control (FA plus bottle), 750000 cfu/5 mL blood) was 2.49 days and the “MIC” value [6] was no more than 4 µg/mL.

For `CN[C@H](CC(C)C)C(=O)N[C@H]1C(=O)N[C@@H](CC(N)=O)C(=O)N[C@H]2C(=O)N[C@H]3C(=O)N[C@H](C(=O)N[C@H](C(=O)O)c4cc(O)cc(O)c4-c4cc3ccc4O)[C@H](O)c3ccc(c(Cl)c3)Oc3cc2cc(c3O[C@@H]2O[C@H](CO)[C@@H](O)[C@H](O)[C@H]2O[C@H]2C[C@](C)(N)[C@H](O)[C@H](C)O2)Oc2ccc(cc2Cl)[C@H]1O` [Vancomycin], the “No-rescue blood culture control result” value ([5]; Example 23, S. aureus in blood containing 500 mg/L Vancomycin) was “negative after 5 days”, the “No-rescue blood culture controls result” value ([5]; Example 24, S. aureus in blood containing 500 mg/L Vancomycin) was “negative” and the “Difference (Days) compared to BE” value ([5]; 20000 Cfu/mL) was “Negative”. The “Flip time in Days” value ([5]; 20000 Cfu/mL) was “Negative”, the “Difference (Days) compared to BE” value ([5]; 35760 Cfu/mL) was “Negative” and the “Flip time in Days” value ([5]; 35760 Cfu/mL) was “Negative”. For the same molecule, the “Difference (Days) compared to BE” value ([5]; 200000 Cfu/mL) was “Negative”, the “Flip time in Days” value ([5]; 200000 Cfu/mL) was “Negative” and the “Difference (Days) compared to BE” value ([5]; 357600 Cfu/mL) was “Negative”. The “Flip time in Days” value ([5]; 357600 Cfu/mL) was “Negative”, the “Bead Rescue Flip time” value ([5]; 1000 cfu/5 mL Blood) was 1.15 days and the “Control Flip time in Days” value ([5]; 1000 cfu/5 mL Blood) was “Neg”. For the same molecule, the “Bead Rescue Flip time” value ([5]; 100000 cfu/5 mL Blood) was 0.66 days, the “Control Flip time in Days” value ([5]; 100000 cfu/5 mL Blood) was “Neg” and the “Bead Rescue Flip time” value ([5]; 1000000 cfu/5 mL Blood) was 0.61 days. For the same molecule, the “Control Flip time in Days” value ([5]; 1000000 cfu/5 mL Blood) was “Neg” and the “Growth in antibiotic dilution series (breakpoint experiment)” value [7] was “grew in every dilution”.
